According to patent US20250170141A1, “MRGPRX2 MODULATORS AND RELATED METHODS OF TREATMENT” (Escient Pharmaceuticals, Inc., priority 2023, published 2025):

Target: T1, human MRGPRX2 (Homo sapiens, UniProt Q96LB1)
T1 construct: expressed in transfected cells; host or cells: CHO cells, stably transfected (G418 and Hygromycin B selection)
T1 sequence (Q96LB1 1-330): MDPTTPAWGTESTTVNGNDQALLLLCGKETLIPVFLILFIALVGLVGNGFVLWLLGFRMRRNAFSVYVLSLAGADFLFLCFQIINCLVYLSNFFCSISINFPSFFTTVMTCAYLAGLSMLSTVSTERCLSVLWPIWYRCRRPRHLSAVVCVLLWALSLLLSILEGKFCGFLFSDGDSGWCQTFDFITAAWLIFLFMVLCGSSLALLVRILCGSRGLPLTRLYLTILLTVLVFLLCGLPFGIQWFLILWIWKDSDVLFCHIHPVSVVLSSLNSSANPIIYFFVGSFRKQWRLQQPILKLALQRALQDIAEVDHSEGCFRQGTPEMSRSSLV
Assay: MRGPRX2 activity: IP-One Gq HTRF assay in CHO cells, antagonism versus 0.3 uM Cortistatin-14
Assay type: cell-based
Settings: versus 0.3 uM Cortistatin-14 agonist, CHO cells expressing human MRGPRX2, read-out: MRGPRX2 Antagonist Activity
Description: CHO cells stably transfected to express human MRGPRX2 were maintained in an incubator at 37° C. with 5% CO2 and grown in F12 (HAM) media with 10% fetal bovine serum (FBS), 1% Glutamax, 1% penicillin/streptomycin, 800 μg/mL Geneticin (G418), and 300 μg/mL Hygromycin B.
Cells were plated in a 384-well assay plate at 20,000 cells per well in 12 μL of Opti-MEM and kept in an incubator overnight. On the day of the assay, compounds solubilized at 10 mM in DMSO were added as a 10-point curve (30 uM final top concentration with 1:3 serial dilutions) using a Tecan D300E digital dispenser. Agonists were diluted in assay buffer (final concentrations of 5.7 mM Tris-HCl, 43 mM NaCl, 50 mM LiCl, pH=8) and 2 μL of the agonist Cortistatin-14 (CPC Scientific, catalog CORT-002) are added to each well. Final concentrations of agonists were 0.3 μM Cortistatin. Final concentrations of DMSO were kept consistent across the plate. Plates were incubated in the dark for 1 h at 37° C. and then for 1 h at room temperature. IP-1 standards and HTRF detection reagents were added according to the IP-One—Gq Kit purchased from Cisbio (part number 62IPAPEJ) and incubated in the dark for 1 h at room temperature. The plate was read on a Molecular Devices SpectraMax iD5 plate reader. The HTRF ratio was calculated from the raw data and graphed using GraphPad Prism to calculate an IC50 value for each compound.
The activity ranges are denoted as follows: “+++++” denotes antagonist activity <100 nM; “++++” denotes antagonist activity between 100 and 500 nM; “+++” denotes activity between 501 and 1000 nM; “++” denotes activity between 1001 and 2500 nM; and “+” denotes activity >2500 nM.

Compound	IC50 [nM]
O=S1(=O)N=C(NCc2ccccc2F)Nc2c1cc(F)c(F)c2Cc1ccccc1Cl [Compound 4-6, 5-(2-chlorobenzyl)-6,7-difluoro-3-((2-fluorobenzyl)amino)-4H-benzo[e][1,2,4]thiadiazine 1,1-dioxide]	100 to 500
O=S1(=O)N=C(NCc2ncccc2F)Nc2c1ccc(F)c2Oc1cccc(F)c1Cl [Compound 1-19, 5-(2-chloro-3-fluorophenoxy)-6-fluoro-3-(((3-fluoropyridin-2-yl)methyl)amino)-4H-benzo[e][1,2,4]thiadiazine 1,1-dioxide]	< 100
O=S1(=O)N=C(NCc2ncccc2F)Nc2c1ccc(F)c2Oc1c(Cl)ccc2ccccc12 [Compound 1-34, 5-((2-chloronaphthalen-1-yl)oxy)-6-fluoro-3-(((3-fluoropyridin-2-yl)methyl)amino)-4H-benzo[e][1,2,4]thiadiazine 1,1-dioxide]	< 100
CC(c1ccc(F)cc1)c1c(F)ccc2c1NC(NCc1ncccc1F)=NS2(=O)=O (centres unmarked) [Compound 8-2, 6-fluoro-5-(1-(4-fluorophenyl)ethyl)-3-(((3-fluoropyridin-2-yl)methyl)amino)-4H-benzo[e][1,2,4]thiadiazine 1,1-dioxide]	< 100
O=S1(=O)N=C(NCc2cc(F)ccc2F)Nc2c1cc(F)c(F)c2Cc1ccccc1Cl [Compound 4-10, 5-(2-chlorobenzyl)-3-((2,5-difluorobenzyl)amino)-6,7-difluoro-4H-benzo[e][1,2,4]thiadiazine 1,1-dioxide]	100 to 500
N#Cc1ccccc1Oc1c(F)ccc2c1NC(NCc1ncccc1F)=NS2(=O)=O [Compound 1-8, 2-((6-fluoro-3-(((3-fluoropyridin-2-yl)methyl)amino)-1,1-dioxido-4H-benzo[e][1,2,4]thiadiazin-5-yl)oxy)benzonitrile]	< 100
O=S1(=O)N=C(NCc2ncc(F)cc2F)Nc2c1ccc(F)c2Oc1ccccc1Cl [Compound 1-14, 5-(2-chlorophenoxy)-3-(((3,5-difluoropyridin-2-yl)methyl)amino)-6-fluoro-4H-benzo[e][1,2,4]thiadiazine 1,1-dioxide]	< 100
O=S1(=O)N=C(NCc2ccccc2C(F)(F)F)Nc2c1ccc(F)c2Oc1ccccc1Cl [Compound 1-27, 5-(2-chlorophenoxy)-6-fluoro-3-((2-(trifluoromethyl)benzyl)amino)-4H-benzo[e][1,2,4]thiadiazine 1,1-dioxide]	< 100
O=S1(=O)N=C(NCc2ncccc2F)Nc2c1ccc(F)c2Oc1ccc(F)cc1Cl [Compound 1-18, 5-(2-chloro-4-fluorophenoxy)-6-fluoro-3-(((3-fluoropyridin-2-yl)methyl)amino)-4H-benzo[e][1,2,4]thiadiazine 1,1-dioxide]	< 100
O=S1(=O)N=C(NCc2ccccc2C(F)(F)F)Nc2c1cc(F)c(F)c2Cc1ccccc1Cl [Compound 4-16, 5-(2-chlorobenzyl)-6,7-difluoro-3-((2-(trifluoromethyl)benzyl)amino)-4H-benzo[e][1,2,4]thiadiazine 1,1-dioxide]	100 to 500
Cc1ccc2c(c1Oc1ccccc1Cl)NC(NCc1ncccc1F)=NS2(=O)=O [Compound 1-4, 5-(2-chlorophenoxy)-3-(((3-fluoropyridin-2-yl)methyl)amino)-6-methyl-4H-benzo[e][1,2,4]thiadiazine 1,1-dioxide]	< 100

Continued, values first:

IC50 [nM]	Compound
100 to 500	O=S1(=O)N=C(NCc2ncccc2F)Nc2c1ccc(F)c2CCc1ccccc1 [Compound 6-1, 6-fluoro-3-(((3-fluoropyridin-2-yl)methyl)amino)-5-phenethyl-4H-benzo[e][1,2,4]thiadiazine 1,1-dioxide]
< 100	O=S1(=O)N=C(NCc2ccccc2F)Nc2c(Cc3ccccc3F)cccc21 [Compound 6-6, 5-(2-fluorobenzyl)-3-((2-fluorobenzyl)amino)-4H-benzo[e][1,2,4]thiadiazine 1,1-dioxide]
< 100	C[C@H](c1ccccc1F)c1c(F)ccc2c1NC(NCc1ccc(F)cc1F)=NS2(=O)=O [Compound 24-2, (R)-3-((2,4-difluorobenzyl)amino)-6-fluoro-5-(1-(2-fluorophenyl)ethyl)-4H-benzo[e][1,2,4]thiadiazine 1,1-dioxide]
100 to 500	COc1cc(C)ccc1CNC1=NS(=O)(=O)c2cccc(Cc3ccccc3Cl)c2N1 [Compound 12-15, 5-(2-chlorobenzyl)-3-((2-methoxy-4-methylbenzyl)amino)-4H-benzo[e][1,2,4]thiadiazine 1,1-dioxide]
< 100	Cc1ccc(CNC2=NS(=O)(=O)c3cccc(Cc4ccccc4Cl)c3N2)c(C)c1 [Compound 12-8, 5-(2-chlorobenzyl)-3-((2,4-dimethylbenzyl)amino)-4H-benzo[e][1,2,4]thiadiazine 1,1-dioxide]
< 100	Cc1ccc(C(C)c2c(F)ccc3c2NC(NCc2cccc(F)c2)=NS3(=O)=O)cn1 (centres unmarked) [Compound 22-24, 6-fluoro-3-((3-fluorobenzyl)amino)-5-(1-(6-methylpyridin-3-yl)ethyl)-4H-benzo[e][1,2,4]thiadiazine 1,1-dioxide]
< 100	O=S1(=O)N=C(NCc2ncc(F)cc2F)Nc2c(Cc3ccccc3Cl)cccc21 [Compound 12-10, 5-(2-chlorobenzyl)-3-(((3,5-difluoropyridin-2-yl)methyl)amino)-4H-benzo[e][1,2,4]thiadiazine 1,1-dioxide]
< 100	CC(C)CC(C)c1c(F)ccc2c1NC(NCc1cccc(F)c1)=NS2(=O)=O (centres unmarked) [Compound 22-4, 6-fluoro-3-((3-fluorobenzyl)amino)-5-(4-methylpentan-2-yl)-4H-benzo[e][1,2,4]thiadiazine 1,1-dioxide]
< 100	CC(c1ccc(F)cc1F)c1c(F)ccc2c1NC(NCc1cccc(F)c1)=NS2(=O)=O (centres unmarked) [Compound 22-25, 5-(1-(2,4-difluorophenyl)ethyl)-6-fluoro-3-((3-fluorobenzyl)amino)-4H-benzo[e][1,2,4]thiadiazine 1,1-dioxide]
< 100	O=S1(=O)N=C(NCc2cccc(F)c2)Nc2c(Cc3ccccc3Cl)cccc21 [Compound 12-22, 5-(2-chlorobenzyl)-3-((3-fluorobenzyl)amino)-4H-benzo[e][1,2,4]thiadiazine 1,1-dioxide]
< 100	C[C@H](c1ccccc1F)c1c(F)ccc2c1NC(NCc1ccc3c(cnn3C)c1)=NS2(=O)=O [Compound 24-3, (R)-6-fluoro-5-(1-(2-fluorophenyl)ethyl)-3-(((1-methyl-1H-indazol-5-yl)methyl)amino)-4H-benzo[e][1,2,4]thiadiazine 1,1-dioxide]
< 100	C[C@H](c1ccccc1F)c1c(F)ccc2c1NC(NCc1ccccc1F)=NS2(=O)=O [Compound 24-1, (R)-6-fluoro-3-((2-fluorobenzyl)amino)-5-(1-(2-fluorophenyl)ethyl)-4H-benzo[e][1,2,4]thiadiazine 1,1-dioxide]
< 100	CC(c1c(F)ccc2c1NC(NCc1cccc(F)c1)=NS2(=O)=O)C1CCCCC1 (centres unmarked) [Compound 22-5, 5-(1-cyclohexylethyl)-6-fluoro-3-((3-fluorobenzyl)amino)-4H-benzo[e][1,2,4]thiadiazine 1,1-dioxide]
< 100	O=S1(=O)N=C(NCc2cccc(Cl)c2)Nc2c(Cc3ccccc3Cl)cccc21 [Compound 12-16, 5-(2-chlorobenzyl)-3-((3-chlorobenzyl)amino)-4H-benzo[e][1,2,4]thiadiazine 1,1-dioxide]
< 100	O=S1(=O)N=C(NCc2cnccc2C(F)(F)F)Nc2c(Cc3ccccc3Cl)cccc21 [Compound 12-30, 5-(2-chlorobenzyl)-3-(((4-(trifluoromethyl)pyridin-3-yl)methyl)amino)-4H-benzo[e][1,2,4]thiadiazine 1,1-dioxide]
100 to 500	Cc1ccc(Cc2cccc3c2NC(NCc2ccccc2F)=NS3(=O)=O)cc1 [Compound 6-16, 3-((2-fluorobenzyl)amino)-5-(4-methylbenzyl)-4H-benzo[e][1,2,4]thiadiazine 1,1-dioxide]
100 to 500	CC(c1cccc(N(C)C)c1)c1c(F)ccc2c1NC(NCc1cccc(F)c1)=NS2(=O)=O (centres unmarked) [Compound 22-23, 5-(1-(3-(dimethylamino)phenyl)ethyl)-6-fluoro-3-((3-fluorobenzyl)amino)-4H-benzo[e][1,2,4]thiadiazine 1,1-dioxide]
100 to 500	COc1ccc(Cc2cccc3c2NC(NCc2ccccc2F)=NS3(=O)=O)cc1 [Compound 6-15, 3-((2-fluorobenzyl)amino)-5-(4-methoxybenzyl)-4H-benzo[e][1,2,4]thiadiazine 1,1-dioxide]
